Measurements published in US20230085307A1, “PYRIDAZINONE COMPOUND AND HERBICIDE” (NISSAN CHEMICAL CORPORATION, priority 2019, published 2023).

Legend:
barnyard grass [1] = assay: Test Example 3: herbicidal effect by foliage application, Wagner pot (Table 18, symbol H); format: in vivo, barnyard grass (Echinochloa crus-galli); details: 320 g/ha
How it was run: (§1)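 Plants were sown in alluvial soil held under 0.1–0.5 cm standing water and grown 14 days in a greenhouse at 25–30 °C. An emulsifiable formulation, water-diluted to the set dose, was then sprayed onto the foliage, and effects were scored three weeks later using previously defined criteria.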

Chinese sprangletop = assay: Test Example 3: herbicidal effect by foliage application, Wagner pot (Table 18, symbol D); format: in vivo, chinese sprangletop (Leptochloa chinensis); details: 320 g/ha
How it was run: as §1

rice flat sedge = assay: Test Example 3: herbicidal effect by foliage application, Wagner pot (Table 18, symbol E); format: in vivo, rice flat sedge (Cyperus iria); details: 320 g/ha
How it was run: as §1

southern crabgrass [2] = assay: Test Example 4: herbicidal effect by soil treatment (Table 19, symbol F); format: in vivo, southern crabgrass (Digitaria ciliaris); details: amount of applied herbicide 320 g/ha
How it was run: (§2)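 Emulsion of test compound, water-diluted to predetermined amount, sprayed on soil after sowing (seed depth ~1.5 cm, sterilized diluvial soil). Greenhouse, 25–30° C. Effect graded at three weeks post-spray.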

green foxtail [3] = assay: Test Example 4: herbicidal effect by soil treatment (Table 19, symbol G); format: in vivo, green foxtail (Setaria viridis); details: amount of applied herbicide 320 g/ha
How it was run: as §2

barnyard grass [4] = assay: Test Example 4: herbicidal effect by soil treatment (Table 19, symbol H); format: in vivo, barnyard grass (Echinochloa crus-galli); details: amount of applied herbicide 320 g/ha
How it was run: as §2

wild oat [5] = assay: Test Example 4: herbicidal effect by soil treatment (Table 19, symbol I); format: in vivo, wild oat (Avena fatua); details: amount of applied herbicide 320 g/ha
How it was run: as §2

blackgrass [6] = assay: Test Example 4: herbicidal effect by soil treatment (Table 19, symbol J); format: in vivo, blackgrass (Alopecurus myosuroides); details: amount of applied herbicide 320 g/ha
How it was run: as §2

Italian ryegrass [7] = assay: Test Example 4: herbicidal effect by soil treatment (Table 19, symbol K); format: in vivo, Italian ryegrass (Lolium multiflorum); details: amount of applied herbicide 320 g/ha
How it was run: as §2

windgrass [8] = assay: Test Example 4: herbicidal effect by soil treatment (Table 19, symbol L); format: in vivo, windgrass (Apera spica-venti); details: amount of applied herbicide 320 g/ha
How it was run: as §2

velvetleaf [9] = assay: Test Example 4: herbicidal effect by soil treatment (Table 19, symbol M); format: in vivo, velvetleaf (Abutilon theophrasti); details: amount of applied herbicide 320 g/ha
How it was run: as §2

redroot pigweed [10] = assay: Test Example 4: herbicidal effect by soil treatment (Table 19, symbol N); format: in vivo, redroot pigweed (Amaranthus retroflexus); details: amount of applied herbicide 320 g/ha
How it was run: as §2

lambsquarters [11] = assay: Test Example 4: herbicidal effect by soil treatment (Table 19, symbol O); format: in vivo, lambsquarters (Chenopodium album); details: amount of applied herbicide 320 g/ha
How it was run: as §2

chickweed [12] = assay: Test Example 4: herbicidal effect by soil treatment (Table 19, symbol P); format: in vivo, common chickweed (Stellaria media); details: amount of applied herbicide 320 g/ha
How it was run: as §2

persian speedwell [13] = assay: Test Example 4: herbicidal effect by soil treatment (Table 19, symbol R); format: in vivo, Persian speedwell (Veronica persica); details: amount of applied herbicide 320 g/ha
How it was run: as §2

southern crabgrass [14] = assay: Test Example 5: herbicidal effect by foliage application, plastic box (Table 20, symbol F); format: in vivo, southern crabgrass (Digitaria ciliaris); details: amount of applied herbicide 320 g/ha; foliage application after 14-day growth; evaluated three weeks after application
How it was run: (§3)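 Post-emergence foliar test in sterilized diluvial soil. Compound applied as water-diluted emulsion at a predetermined rate to 14-day-old plants; evaluation at three weeks.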

green foxtail [15] = assay: Test Example 5: herbicidal effect by foliage application, plastic box (Table 20, symbol G); format: in vivo, green foxtail (Setaria viridis); details: amount of applied herbicide 320 g/ha; foliage application after 14-day growth; evaluated three weeks after application
How it was run: as §3

barnyard grass [16] = assay: Test Example 5: herbicidal effect by foliage application, plastic box (Table 20, symbol H); format: in vivo, barnyard grass (Echinochloa crus-galli); details: amount of applied herbicide 320 g/ha; foliage application after 14-day growth; evaluated three weeks after application
How it was run: as §3

wild oat [17] = assay: Test Example 5: herbicidal effect by foliage application, plastic box (Table 20, symbol I); format: in vivo, wild oat (Avena fatua); details: amount of applied herbicide 320 g/ha; foliage application after 14-day growth; evaluated three weeks after application
How it was run: as §3

blackgrass [18] = assay: Test Example 5: herbicidal effect by foliage application, plastic box (Table 20, symbol J); format: in vivo, blackgrass (Alopecurus myosuroides); details: amount of applied herbicide 320 g/ha; foliage application after 14-day growth; evaluated three weeks after application
How it was run: as §3

Italian ryegrass [19] = assay: Test Example 5: herbicidal effect by foliage application, plastic box (Table 20, symbol K); format: in vivo, Italian ryegrass (Lolium multiflorum); details: amount of applied herbicide 320 g/ha; foliage application after 14-day growth; evaluated three weeks after application
How it was run: as §3

windgrass [20] = assay: Test Example 5: herbicidal effect by foliage application, plastic box (Table 20, symbol L); format: in vivo, windgrass (Apera spica-venti); details: amount of applied herbicide 320 g/ha; foliage application after 14-day growth; evaluated three weeks after application
How it was run: as §3

velvetleaf [21] = assay: Test Example 5: herbicidal effect by foliage application, plastic box (Table 20, symbol M); format: in vivo, velvetleaf (Abutilon theophrasti); details: amount of applied herbicide 320 g/ha; foliage application after 14-day growth; evaluated three weeks after application
How it was run: as §3

redroot pigweed [22] = assay: Test Example 5: herbicidal effect by foliage application, plastic box (Table 20, symbol N); format: in vivo, redroot pigweed (Amaranthus retroflexus); details: amount of applied herbicide 320 g/ha; foliage application after 14-day growth; evaluated three weeks after application
How it was run: as §3

lambsquarters [23] = assay: Test Example 5: herbicidal effect by foliage application, plastic box (Table 20, symbol O); format: in vivo, lambsquarters (Chenopodium album); details: amount of applied herbicide 320 g/ha; foliage application after 14-day growth; evaluated three weeks after application
How it was run: as §3

chickweed [24] = assay: Test Example 5: herbicidal effect by foliage application, plastic box (Table 20, symbol P); format: in vivo, common chickweed (Stellaria media); details: amount of applied herbicide 320 g/ha; foliage application after 14-day growth; evaluated three weeks after application
How it was run: as §3

persian speedwell [25] = assay: Test Example 5: herbicidal effect by foliage application, plastic box (Table 20, symbol R); format: in vivo, Persian speedwell (Veronica persica); details: amount of applied herbicide 320 g/ha; foliage application after 14-day growth; evaluated three weeks after application
How it was run: as §3

Cc1nn(C)c(=O)c(-c2c(-c3ccc(Br)cc3)sc3c(C)cccc23)c1O [4-104]
herbicidal effect on barnyard grass (H) (barnyard grass [1]): 2 (Herbicidal rate of 20% or more and less than 40%) | herbicidal effect on Chinese sprangletop (D) (Chinese sprangletop): 0 (Herbicidal rate of 5% or less (almost no effect)) | herbicidal effect on rice flat sedge (E) (rice flat sedge): 0 (Herbicidal rate of 5% or less (almost no effect)) | Herbicidal effect by soil treatment, F: southern crabgrass (southern crabgrass [2]): 0 (Herbicidal rate of 5% or less (almost no effect)) | Herbicidal effect by soil treatment, G: green foxtail (green foxtail [3]): 0 (Herbicidal rate of 5% or less (almost no effect)) | Herbicidal effect by soil treatment, H: barnyard grass (barnyard grass [4]): 0 (Herbicidal rate of 5% or less (almost no effect)) | Herbicidal effect by soil treatment, I: wild oat (wild oat [5]): 0 (Herbicidal rate of 5% or less (almost no effect)) | Herbicidal effect by soil treatment, J: blackgrass (blackgrass [6]): 0 (Herbicidal rate of 5% or less (almost no effect)) | Herbicidal effect by soil treatment, K: Italian ryegrass (Italian ryegrass [7]): 0 (Herbicidal rate of 5% or less (almost no effect)) | Herbicidal effect by soil treatment, L: windgrass (windgrass [8]): 0 (Herbicidal rate of 5% or less (almost no effect)) | Herbicidal effect by soil treatment, M: velvetleaf (velvetleaf [9]): 2 (Herbicidal rate of 20% or more and less than 40%) | Herbicidal effect by soil treatment, N: redroot pigweed (redroot pigweed [10]): 4 (Herbicidal rate of 70% or more and less than 90%) | Herbicidal effect by soil treatment, O: lambsquarters (lambsquarters [11]): 1 (Herbicidal rate of 5% or more and less than 20%) | Herbicidal effect by soil treatment, P: chickweed (chickweed [12]): 3 (Herbicidal rate of 40% or more and less than 70%) | Herbicidal effect by soil treatment, R: persian speedwell (persian speedwell [13]): 3 (Herbicidal rate of 40% or more and less than 70%) | Herbicidal effect by foliage application, F: southern crabgrass (southern crabgrass [14]): 0 (Herbicidal rate of 5% or less (almost no effect)) | Herbicidal effect by foliage application, G: green foxtail (green foxtail [15]): 0 (Herbicidal rate of 5% or less (almost no effect)) | Herbicidal effect by foliage application, H: barnyard grass (barnyard grass [16]): 0 (Herbicidal rate of 5% or less (almost no effect)) | Herbicidal effect by foliage application, I: wild oat (wild oat [17]): 0 (Herbicidal rate of 5% or less (almost no effect)) | Herbicidal effect by foliage application, J: blackgrass (blackgrass [18]): 0 (Herbicidal rate of 5% or less (almost no effect)) | Herbicidal effect by foliage application, K: Italian ryegrass (Italian ryegrass [19]): 4 (Herbicidal rate of 70% or more and less than 90%) | Herbicidal effect by foliage application, L: windgrass (windgrass [20]): 3 (Herbicidal rate of 40% or more and less than 70%) | Herbicidal effect by foliage application, M: velvetleaf (velvetleaf [21]): 5 (Herbicidal rate of 90% or more (almost completely withered)) | Herbicidal effect by foliage application, N: redroot pigweed (redroot pigweed [22]): 5 (Herbicidal rate of 90% or more (almost completely withered)) | Herbicidal effect by foliage application, O: lambsquarters (lambsquarters [23]): 4 (Herbicidal rate of 70% or more and less than 90%) | Herbicidal effect by foliage application, P: chickweed (chickweed [24]): 5 (Herbicidal rate of 90% or more (almost completely withered)) | Herbicidal effect by foliage application, R: persian speedwell (persian speedwell [25]): 5 (Herbicidal rate of 90% or more (almost completely withered))
